{"source": "patent US20140242012A1", "about": "“METHODS FOR TREATING UV-DAMAGED SKIN AND SCC TUMORS AND FOR REMOVING TATTOOS WITH TOPICAL INGENOL MEBUTATE” (LEO Laboratories Limited, priority 2011, published 2014)", "key": {"B16 [1]": {"system": "B16", "experiment": "In vitro cytotoxicity assay (SRB)", "format": "cell-based, murine", "conditions": "48 h, DMSO", "experimental": "(§1) UV-13.1 and T7 cells are cultured in DMEM medium (Gibco Catalogue number 11960) supplemented with sodium-pyruvate (Gibco Catalogue number 11360-070, final concentration 1 mM), L-glutamine (Gibco, catalogue number 25030-081, final concentration 2 mM) and penicillin/streptomycin (Catalogue number 490269, diluted 1:100). B 16 cells are cultured in RPMI (QIMR) supplemented with 10% FBS and penicillin/streptomycin.\n(§2) Cells are seeded with in 10,000 per microtitre wells in 100 μl of culture medium and incubated overnight to enable them to adhere to the bottom of the well. Quadruplicate wells aere treated with ingenol mebutate (PEP005 #250803 final concentration 0.232-232 μM) dissolved in DMSO (Sigma, D2650). […] Included in the assay were cells treated with vehicle alone (1% DMSO) and control. The treated cells are incubated at 37° C. for 48 h. Medium from the microtitre plates is tipped out; the wells are washed once with PBS to remove any excess FBS and then are fixed with methylated spirits for a minimum of 5 min. The methylated spirit is tipped off and the wells are washed once with tap water. A volume of 50 μl of sulforhodmain B (SRB) solution (0.4% SRB in 1% acetic acid) is added to each well and the plates are incubated at room temperature for a minimum of 15 min. The SRB solution is tipped off and the plates are washed twice with tap water and then twice with 1% acetic acid. The final wash of acetic acid is tapped out of the plate and 100 μl of 10 mM Tris base (unbuffered, pH>9) is added per well. The plate is incubated at room temperature for at least 5 min and then the absorbance is read on an ELISA plate reader at 564 nm.\n(§3) To determine the in vitro sensitivity profile of T7 cells to ingenol mebutate treatment, a dose-response is generated by using the SRB stain to monitor cellular protein. Cells are seeded at high density and treated with ingenol mebutate (0.232-232 μM) for 48 h. The plates are fixed and are stained with SRB. […]\n(§4) Cells are treated with 0.232-232 μM of ingenol mebutate. […] After 2 days, total protein is determined using SRB staining. […]"}, "T7 cells": {"system": "T7 cells", "experiment": "In vitro cytotoxicity assay (SRB)", "format": "cell-based, murine", "conditions": "48 h, DMSO", "experimental": "as §1, §2, §3, §4"}, "UV-13.1": {"system": "UV-13.1", "experiment": "In vitro cytotoxicity assay (SRB)", "format": "cell-based, murine", "conditions": "48 h, DMSO", "experimental": "as §1, §2, §3, §4"}, "T7 tumours": {"system": "T7 tumours", "experiment": "Challenge of ingenol mebutate cured mice with T7 cells", "format": "in vivo, SKH1/hr mice", "conditions": "challenge 110 or 159 days after cure with 0.25% topical", "experimental": "To determine if cure of primary T7 tumours in inbred SKH1/hr mice would protect mice from subsequent challenge with the same tumour, T7 cells were injected s.c. in female SKH1/hr mice that had primary T7 tumours previously cured by topical treatment with 0.25% ingenol mebutate. There were 2 groups of mice, mice that had primary tumours cured by ingenol mebutate 110 (group 1) and 159 (group 2) days prior to challenge. Included in the study was a control group that had not previously received T7 or ingenol mebutate treatment. Tumour growth is monitored over time. Mice are culled when tumours reached 100 mm^2.\nMice are inoculated s.c. with 2×10^4 T7 cells 110 (Day 110) or 159 (Day 159) days post last treatment of primary tumour with ingenol mebutate. Tumour growth is monitored over time. Mice are sacrificed when tumour reached 100 mm^2. Survival curves are generated by assigning a death event when tumours reached 100 mm^2. Control mice had neither prior T7 nor ingenol mebutate treatment."}, "Tattoo studies": {"experiment": "Tattoo studies", "format": "in vivo, SKH1/hr mice", "conditions": "50 μl topically daily for 2 days (Days 12 & 13), followed to Day 232, n=5", "experimental": "Fifteen SKH1/hr mice are tattooed on their dorsa with an about 1 cm×about 1 cm cross using human grade blue tattoo ink (Tattoo supplies Australia, Catalogue number FFMB) on Day 0. Once the tattooed area heals (after 12 days), the tattoo (about 100 mm^2) is topically treated daily for 2 days with 50 μl of PEP005 gel or placebo gel (Day 12 & Day 13). Two PEP005 doses are tested: 0.1% and 0.25% (w/v). The mice are examined over time to assess any changes to the tattooed area and photographs are taken.\nThe aim study is to determine whether PEP005 gel can remove tattoo markings when applied topically. Fifteen mice are tattooed with a cross on their dorsa. Twelve days after the tattoos are drawn, they are treated topically daily for 2 days with 0.1% PEP005, 0.25% PEP005 or placebo gel. The photographs in FIG. 1 show the tattoo just prior to the first treatment (Day 12), 24 h after the first treatment (Day 13) and at different time points after the second treatment (from Day 14 onwards). […] One week after the second dose, an eschar encompassing the whole treatment area forms. This contracts over time and fully resolves after about 3 weeks (Day 32). […] Six to seven months after the PEP005 treatment is applied, the treated area heals, leaving skin with a slight pink tinge. […] There is no change in the placebo treated tattoos over this time frame. […]"}, "B16 [2]": {"system": "B16", "conditions": "Ogbourne et al. 2004; cited from earlier work"}}, "data": [{"compound": "C/C=C(/C)C(=O)O[C@H]1C(C)=C[C@]23C(=O)[C@@H](C=C(CO)[C@@H](O)[C@]12O)[C@H]1[C@@H](C[C@H]3C)C1(C)C", "note": "[ingenol mebutate]", "values": [{"measurement": "90% lethal dose (LD90)", "setting": "B16 [1]", "value": "100 to 110", "unit": "µM"}, {"measurement": "90% lethal dose (LD90)", "setting": "T7 cells", "value": "100 to 110", "unit": "µM"}, {"measurement": "90% lethal dose (LD90)", "setting": "UV-13.1", "value": "100 to 110", "unit": "µM"}, {"measurement": "protection against subsequent T7 challenge", "setting": "T7 tumours", "value": "no protective effect"}, {"measurement": "removal of tattoo markings", "setting": "Tattoo studies", "value": "eradication of the tattoo markings"}, {"measurement": "LD90", "setting": "B16 [2]", "value": 190, "unit": "µM"}]}]}
